Experimental data taken from US20110275644A1, “BIOLOGICAL MARKERS PREDICTIVE OF ANTI-CANCER RESPONSE TO INSULIN-LIKE GROWTH FACTOR-1 RECEPTOR KINASE INHIBITORS” (priority 2010, published 2011).
One block for each molecule: values may come before it.

Key:
[1] = tested on: MDAH-2774 OvCa tumor cells; test: growth inhibition assay (Cell Titer-Glo); assay type: cell-based, human
From the text: Cell Lines and Culture. Human cancer cell lines, were obtained from American Type Culture Collection (ATCC, Manassas, Va.), or the following additional indicated sources, and cultured in media as described. Tumor types are also indicated: H295R (adrenocortical carcinoma; ATCC), NCI-[…], NCI-[…], SW1573 (NSCLC; ATCC), […], BxPC3 (pancreatic; ATCC), OVCAR5 (ovarian; NCI;), MDAH-2774 (ovarian; ATCC), Igrov1 (ovarian; NCI), GEO (colon; Roswell Park Cancer Institute (RPCC)), HT-29 (colon; ATCC), RKO (colon; ATCC), […], 8226 (myeloma; ATCC), H929 (myeloma; ATCC), U266 (myeloma; ATCC), SKES1 (Ewings sarcoma; ATCC), RDES (Ewings sarcoma; ATCC), RD (rhabdomyosarcoma; ATCC), DU4475 (breast; ATCC), SKNAS (neuroblastoma; ATCC), 2650 (nasal SCC; ATCC), OVCAR4 (ovarian; NCI), A673 (Ewings sarcoma; ATCC), BT474 (breast; ATCC), 1386 (oral SCC; MSKCC, NY), 1186 (SCCHN; MSKCC, NY), Colo205 (colon; ATCC), HCT-15 (colon; ATCC), Fadu (oral SCC; ATCC), SKBR3 (breast; ATCC), 1483 (HNSCC; MSKCC, NY), HSC-2 (HNSCC; RIKEN BioResource Center, Tsukuba, Ibaraki, 305-0074, Japan). […] The cells were routinely screened for the presence of mycoplasma (MycoAlert, Cambrex Bio Science, Baltimore, Md.). For growth inhibition assays, cells were plated and allowed to proliferate for 24 hours. […] Cell viability was assayed using the Cell Titer-Glo reagent (Promega Corp., Madison, Wis.).

GEO (CRC) tumors = test: tumor xenograft anti-tumor efficacy; assay type: in vivo, nu/nu CD-1 mice; details: OSI-906 50 mg/kg once-daily for 14 days; MAB391 every three days for a total of 5 doses
From the text: (§1) Animals: Female nu/nu CD-1 mice (6-8 weeks, 22-25 g) were purchased from Charles River Laboratories (Wilmington, Mass.) and maintained in an AAALAC-accredited facility at OSI Pharmaceuticals as described previously (12).
(§2) In vivo anti-tumor efficacy studies: Cells were harvested and implanted s.c. in the right flank of nu/nu CD-1 mice as described previously (12). Tumors were allowed to establish to 200±50 mm^3 in size before randomization into various treatment groups. […] Tumor volumes were determined from caliper measurements using the formula V=(length×width^2)/2. Tumor sizes and body weights were measured twice weekly. Tumor growth inhibition (TGI) was determined at different time points by the following formula: % TGI={1−[(Tt/T0)/(Ct/C0)]/1[C0/Ct}×100, where Tt=median tumor volume of treated at time t, T0=median tumor volume of treated at time 0, Ct=median tumor volume of control at time t, and C0=median tumor volume of control at time 0.

[2] = tested on: SK-N-AS (neuroblastoma) tumors; test: tumor xenograft anti-tumor efficacy; assay type: in vivo, nu/nu CD-1 mice
From the text: as §1, §2

BxPC3 tumors = test: tumor xenograft anti-tumor efficacy; parameters: species or system nu/nu CD-1 mice; details: after treatment with OSI-906 in vivo for 10-14 days
From the text: as §1, §2

Colo205 tumors = test: tumor xenograft anti-tumor efficacy; parameters: species or system nu/nu CD-1 mice; details: after treatment with OSI-906 in vivo for 10-14 days
From the text: as §1, §2

FaDu tumors = test: tumor xenograft anti-tumor efficacy; parameters: species or system nu/nu CD-1 mice; details: after treatment with OSI-906 in vivo for 10-14 days
From the text: as §1, §2

H295R tumors = test: tumor xenograft anti-tumor efficacy; parameters: species or system nu/nu CD-1 mice; details: after treatment with OSI-906 in vivo for 10-14 days
From the text: as §1, §2

H460 tumors = test: tumor xenograft anti-tumor efficacy; parameters: species or system nu/nu CD-1 mice; details: after treatment with OSI-906 in vivo for 10-14 days
From the text: as §1, §2

phospho-AKT [3] = test: in vivo pharmacodynamic analysis, GEO tumors; parameters: species or system nu/nu CD-1 mice; details: GEO model
Protocol: Tumor samples were collected at specified time points and snap frozen in liquid nitrogen. Tumor lysates were prepared by homogenizing samples in Precellys 24 homogenizer (MO Bio Laboratories, Inc., CA) with tumor lysis buffer (1% Triton X-100, 10% glycerol, 50 mM HEPES (ph 7.4), 150 mM NaCl, 1.5 mM MgCl2, 1 mM EDTA supplemented with fresh protease inhibitor cocktail (Sigma, Mo.), phosphatase inhibitor cocktail (Sigma, Mo.), 10 mM NaF and 1 mM sodium orthovanadate). Tissue homogenates were clarified by centrifugation at 14,000 g for 5 min at 4° C. and supernatants were then analyzed by Western blot or phospho-RTK array as indicated.

[4] = tested on: phospho-AKT or phospho-ERK; test: Western blot, downstream AKT and ERK signaling in tumor cell lines; assay type: cell-based, human; details: OSI-906 3 μM or MAB391 3 μg/ml, 16 hour
Protocol: (§3) Preparation of Protein Lysates and Western Blotting: Lysates for Western blotting were prepared as previously described (44). Antibodies included: IGF-1R (Santa Cruz), IR (Santa Cruz), phospho-p42/p44 (Cell Signaling Technologies), phospho-Akt (S473) (Cell Signaling Technologies), phospho-Akt (T308) (Cell Signaling Technologies), phosho-S6 (235/236) (Cell Signaling Technologies), phosphor-PRAS40 (Cell Signaling Technologies), and phosphor-IRS-1-Y612 (Biosource).

phospho-IRS1^Y612 = test: Western blot, phospho-IRS1 in tumor cell lines; assay type: cell-based, human; details: A673, H322, and H295R tumor cell lines; OSI-906 3 μM or MAB391 3 μg/ml
Protocol: as §3

phospho-PRAS40 = test: Western blot, phospho-PRAS40 in H295R cells; assay type: cell-based, human
Protocol: as §3

IR and IGF-1R = test: receptor phosphorylation in doxorubicin-treated A673 tumor cells; assay type: cell-based, human
pERK = pERK in doxorubicin-treated A673 tumor cells; assay type: cell-based, human
phospho-AKT [5] = test: phospho-AKT in HT-29 CRC cells with insulin; assay type: cell-based, human; details: HT-29 cells, basal or 5 or 50 μIU/mL insulin
Protocol: as §3

[6] = tested on: broad panel (n=116) of additional RTKs and other protein kinases; details: at 1 μM; cited from earlier work
phospho-IGF-1R [7] = target: T1, phospho-IGF-1R (Homo sapiens, UniProt P08069); test: receptor phosphorylation in MDAH-2774 cells; assay type: cell-based; parameters: endogenous in cells; host or cells: human tumour cell lines (MDAH-2774); details: MDAH-2774 cells alone or with insulin, IGF-1 or IGF-2; OSI-906 3 μM or MAB391 3 μg/ml
Protocol: as §3
(§4) Analysis of RTK phosphorylation via a proteome array: Proteome Profiler arrays containing capture antibodies for 42 RTKs were from R&D systems (RTK Proteome Profile; R&D Systems, Minneapolis, Minn.) and processed according to manufacturer's protocol. pIGF-1R and pIR were determined by RTK capture array. Proteome profiler arrays housed 42 different RTKs. RTKs included on the array include: HER1, HER2, HER3, HER4, FGFR1, FGFR2a, FGFR3, FGFR4, IR, IGF-1R, Axl, Dtk, Mer, HGFR, MSPR, PDGFRα, PDGFRβ, SCFR, Flt-3, M-CSFR, c-Ret, ROR1, ROR2, Tie-1, Tie-2, TrkA, TrkB, TrkC, VEGFR1, VEGFR2, VEGFR3, MuSK, EphA1, EphA2, EphA3, EphA4, EphA6, EphA7, EphB1, EphB2, EphB4, EphB6. This array was used as an RTK capture assay for determining pIGF-1R and pIR levels. Capture antibodies specific to each RTK are used to bind RTKs in tumor cell extracts. […]

phospho-IGF-1R [8] = target: T1, phospho-IGF-1R; test: RTK capture array, panel of nine tumor cell lines; assay type: cell-based; parameters: endogenous in cells; host or cells: human tumour cell lines (panel of nine; HT-29; MDAH-2774; H322, SK-N-AS, H295R, A673); details: OSI-906 3 μM or MAB391 3 μg/mL; 16 hours; each cell line tested
Protocol: Analysis of RTK phosphorylation via a proteome array: Proteome Profiler arrays containing capture antibodies for 42 RTKs were from R&D systems (RTK Proteome Profile; R&D Systems, Minneapolis, Minn.) and processed according to manufacturer's protocol. pIGF-1R and pIR were determined by RTK capture array. Proteome profiler arrays housed 42 different RTKs. RTKs included on the array include: HER1, HER2, HER3, HER4, FGFR1, FGFR2a, FGFR3, FGFR4, IR, IGF-1R, Axl, Dtk, Mer, HGFR, MSPR, PDGFRα, PDGFRβ, SCFR, Flt-3, M-CSFR, c-Ret, ROR1, ROR2, Tie-1, Tie-2, TrkA, TrkB, TrkC, VEGFR1, VEGFR2, VEGFR3, MuSK, EphA1, EphA2, EphA3, EphA4, EphA6, EphA7, EphB1, EphB2, EphB4, EphB6. This array was used as an RTK capture assay for determining pIGF-1R and pIR levels. Capture antibodies specific to each RTK are used to bind RTKs in tumor cell extracts. An HRP-conjugated pan anti-phospho-tyrosine antibody is used to specifically detect phosphorylated RTKs.

phospho-IGF-1R [9] = target: T1, phospho-IGF-1R; test: receptor phosphorylation in HT-29 CRC cells with insulin; assay type: cell-based; parameters: endogenous in cells; host or cells: human tumour cell lines (panel of nine; HT-29; MDAH-2774; H322, SK-N-AS, H295R, A673); details: HT-29 cells treated with 5 or 50 μIU/mL insulin; OSI-906 3 μM or MAB391 3 μg/ml, 16 hours
Protocol: as §3, §4

[10] = A673 tumor cells, doxorubicin 300 nM

T1 sequence (P08069 31-1367): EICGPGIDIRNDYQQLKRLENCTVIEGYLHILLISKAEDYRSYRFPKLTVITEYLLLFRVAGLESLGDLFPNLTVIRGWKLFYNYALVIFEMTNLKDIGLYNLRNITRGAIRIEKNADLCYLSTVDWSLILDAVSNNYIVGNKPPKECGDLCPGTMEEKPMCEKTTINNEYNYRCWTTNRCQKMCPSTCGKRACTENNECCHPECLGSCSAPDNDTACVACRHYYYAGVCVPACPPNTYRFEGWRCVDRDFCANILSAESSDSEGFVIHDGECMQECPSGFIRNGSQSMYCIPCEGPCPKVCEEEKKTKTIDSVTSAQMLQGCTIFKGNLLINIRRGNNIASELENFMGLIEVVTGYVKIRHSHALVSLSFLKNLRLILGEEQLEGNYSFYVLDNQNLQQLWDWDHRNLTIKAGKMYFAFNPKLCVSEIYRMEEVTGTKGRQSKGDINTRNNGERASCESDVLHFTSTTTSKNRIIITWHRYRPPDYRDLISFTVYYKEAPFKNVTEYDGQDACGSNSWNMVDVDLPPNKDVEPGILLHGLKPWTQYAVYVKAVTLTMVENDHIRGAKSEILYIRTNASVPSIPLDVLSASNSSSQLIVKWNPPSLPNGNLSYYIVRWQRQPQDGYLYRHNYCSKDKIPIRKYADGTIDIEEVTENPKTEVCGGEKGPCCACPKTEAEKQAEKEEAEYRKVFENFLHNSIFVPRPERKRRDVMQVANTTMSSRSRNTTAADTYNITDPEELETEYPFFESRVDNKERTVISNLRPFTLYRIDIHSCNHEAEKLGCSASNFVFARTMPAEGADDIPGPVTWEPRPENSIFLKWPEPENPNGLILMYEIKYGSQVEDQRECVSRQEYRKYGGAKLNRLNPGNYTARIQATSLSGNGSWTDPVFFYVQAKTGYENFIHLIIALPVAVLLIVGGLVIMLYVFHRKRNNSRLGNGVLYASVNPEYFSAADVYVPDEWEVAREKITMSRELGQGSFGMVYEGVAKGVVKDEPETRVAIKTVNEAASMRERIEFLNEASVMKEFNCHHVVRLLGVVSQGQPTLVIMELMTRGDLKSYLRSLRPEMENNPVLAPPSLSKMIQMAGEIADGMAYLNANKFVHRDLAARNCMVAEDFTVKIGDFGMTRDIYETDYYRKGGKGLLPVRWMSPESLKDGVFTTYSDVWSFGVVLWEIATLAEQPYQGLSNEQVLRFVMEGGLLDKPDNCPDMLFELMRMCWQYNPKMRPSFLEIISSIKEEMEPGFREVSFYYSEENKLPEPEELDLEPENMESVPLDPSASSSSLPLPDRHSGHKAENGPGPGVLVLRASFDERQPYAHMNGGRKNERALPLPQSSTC

inhibition of IGF-1R phosphorylation (phospho-IGF-1R [7]): fully inhibited
decrease of phospho-IGF-1R (phospho-IGF-1R [8]): > 90%
inhibition of phospho-IGF-1R (phospho-IGF-1R [9]): fully inhibited
Structure (SMILES): C[C@]1(O)C[C@@H](c2nc(-c3ccc4ccc(-c5ccccc5)nc4c3)c3c(N)nccn32)C1 [OSI-906, cis-3-[8-amino-1-(2-phenyl-quinolin-7-yl)-imidazo[1,5-a]pyrazin-3-yl]-1-methyl-cyclobutanol]
sensitivity to OSI-906 in vitro [1]: sensitive
mean TGI over the dosing period (GEO (CRC) tumors): 79%
mean tumor growth inhibition (TGI) over the dosing period ([2]; OSI-906 50 mg/kg once-daily for 14 days, MAB391 1 mg every three days intraperitoneally): 100%
% TGI ([2]; after treatment with OSI-906 in vivo for 10-14 days): 71%
% TGI (BxPC3 tumors): 56%
% TGI (Colo205 tumors): 90%
% TGI (FaDu tumors): < 30%
% TGI (H295R tumors): 85%
% TGI (H460 tumors): < 30%
effect on phospho-AKT in tumors (phospho-AKT [3]): decreased phospho-AKT in tumors
decrease of phospho-AKT or phospho-ERK levels ([4]; H322, H295R, and A673 cells): to a greater extent than did MAB391
effect on phospho-AKT levels ([4]; SK-N-AS (neuroblastoma) tumor cells): decrease phospho-AKT levels
inhibition of phosphorylation of IRS1^Y612 (phospho-IRS1^Y612): strongly inhibited
effect on phospho-PRAS40 (phospho-PRAS40): decreased phospho-PRAS40
inhibition of IR and IGF-1R phosphorylation (IR and IGF-1R; A673 tumor cells treated with doxorubicin (300 nM)): inhibits both IR and IGF-1R
inhibition of pERK (pERK; A673 tumor cells treated with doxorubicin (300 nM), compared with MAB391): greater inhibition of pERK
inhibition of phospho-AKT (phospho-AKT [5]): fully inhibited
inhibition [6]: < 50%

Structure (SMILES): COc1cccc2c1C(=O)c1c(O)c3c(c(O)c1C2=O)C[C@@](O)(C(=O)CO)C[C@@H]3O[C@H]1C[C@H](N)[C@H](O)[C@H](C)O1 [doxorubicin, reference compound]
phosphorylation of IR and IGF-1R following treatment (IR and IGF-1R; [10]): upregulated phosphorylation of both IR and IGF-1R
downstream signaling at the level of pERK following treatment (pERK; [10]): increased phosphorylation of downstream signaling at the level of pERK
